Assay results from US20180371408A1, “CELL CULTURES AND METHODS OF USE” (priority 2017, published 2018).
pIC50: −log10 of the molar value. Read-outs that look alike come from different tables or passages of the source.

Experiments:
[1] = system: Spermatogonial cells (C18-4); assay: cells; type: cell-based, mouse; conditions: Mus musculus, read-out: IC50
Leydig cells (TM3) = assay: cells; type: cell-based, mouse; conditions: Mus musculus, Leydig, read-out: IC50
Sertoli cells (TM4) = assay: cells; type: cell-based, mouse; conditions: Mus musculus, read-out: IC50
[2] = system: testicular cell co-culture (C18-4, TM4, TM3); assay: Machine learning-based HCA phenotype classification (multinucleated cells, M phase, stretching F-actin filaments); type: cell-based, mouse; conditions: for induction of multinucleated cells, in words: FIG. 12F
Source text: Our processing pipeline included cell segmentation, localization, and measurements of multiple features of single cells. This pipeline identified the nuclei from the Hoechst 33342 (nuclei) channel and used the nuclei as primary objects to assist in the identification of secondary objects, which included F-actin and γ-H2AX in each cell. The pipeline (which is freely available from the authors upon request) has the ability to measure over 200 cellular features, including size, shape, intensity, and texture of nuclei, intensity, and texture of F-actin, and intensity of γ-H2AX in a single cell. In order to measure the nuclear area and shape of a cell, multiple features such as object area, perimeter eccentricity and orientation had to be extracted. Object intensity was determined through measurements of various intensity statistics including the integrated intensity, the mean intensity, and the maximal or minimal pixel intensities within an object or on the object's edge. To quantify the object's texture, Haralick texture features derived from the co-occurrence matrix were employed to calculate the occurrence of pairs of pixels with specific intensity values and spatial relationships in an image. The texture features were described by homogeneity, local variation, randomness, and the contrast of object texture. Supervised ML was performed with the CellProfiler Analyst via the “RandomForest Classifier” algorithm (Broad Institute, MA) (Jones et al., 2008). RandomForest is an ensemble learning method that constructs decision trees with an averaged prediction, and is robust in high-dimensional data analysis with low bias (Breiman, 2001).
In the current study, we quantified three key phenotypic changes in the co-culture model. The first change we noticed was the induction of multinucleated cells, a unique toxicity marker for BPAF observed in spermatogonia cells in the previous study, was once again examined in the current co-culture testicular cell model. As depicted in FIG. 10, the multinucleated phenotype was identified as a cell with giant nuclei and irregular nuclear contour. […] Mitotic phenotypes were identified as cells with small condensed nuclei with a round shape (prometaphase), condensed nuclei with shallow concavities (metaphase), and nuclei with separated and aligned chromosomes (anaphase, telophase, and late telophase). […] Cells with phenotypic 3D structure have F-actin bundles stretching across their cytoplasm. During the training process, a small set of unclassified objects were manually sorted into two classes, including non-multinucleated cells or multinucleated cells, cells not in M phases or cells in M phase, and cells with or without stretching F-actin filaments. The maximum number of features was set as 20 in order to generate rules for phenotypic classification, and those features were automatically selected by the RandomForest classifier to capture the subtle differences between the classes. The phenotype classification was based on the images acquired by Arrayscan™ VTI HCS reader, and multiple features were measured by CellProfiler. The input features included values describing nuclei size and shape, DNA intensity and texture, F-actin intensity and texture, and γ-H2AX intensity at the single-cell level. For multinucleated cells and M phase cells, the training set was established by visual examination of the images in the nuclei channel. For a cell with stretching F-actin filaments, initial manual classification during the training process was based on multi-channel images, including nuclei, F-actin and γ-H2AX. The results were presented in terms of the number of cells in predefined classes and total cell number per image field. The field-based data were averaged for the well-based condition.
(§1) Data were presented as mean±standard deviation (SD).

[3] = system: testicular cell co-culture (C18-4, TM4, TM3); assay: HCA of F-actin cytoskeleton and γ-H2AX DNA damage response; type: cell-based, mouse; conditions: for effect on F-actin cord-like structures, in words: FIG. 14A: BPA and BPS 100 μM, BPAF 5 and 15 μM, TBBPA 15 μM, 48 h; for γ-H2AX expression, in words: co-cultures, up to 100 μM; for doses inducing DNA damage response (γ-H2AX): co-culture model
Procedure: BrdU incorporation, cell fixation, BrdU, and DNA staining followed the previously published protocol (Liang, et al., 2017b). the determination of DNA damage responses and cytoskeleton analysis was conducted after cell fixation. The cells were then permeabilized by a 0.1% Triton X-100 in PBS, and then incubated with a mouse-anti phosphor-histone H2AX (Ser139) (γ-H2AX) overnight at 4° C. […] Finally, prior to acquiring the images, the cells were stained with Alexa Fluor 488 Phallodin for 30 minutes to stain the F-actin (Liang, et al., 2017)
Multi-channel images were then automatically acquired using an Arrayscan™ VTI HCS reader (Thermo Scientific, MA) with the HCS Studio 2.0 Target Activation BioApplication module. Forty-nine fields per well were acquired at 20× and 40× magnification using a Hamamatsu ROCA-ER digital camera in combination with a 0.63× coupler and Carl Zeiss microscope optics in auto-focus mode. Image smoothing was conducted in order to reduce object fragmentation prior to the primary object identification that takes place in the first channel. Channel one (Ch1) applied the BGRFR 386_23 for Hoechst 33342 that was used for auto-focus, object identification, and segmentation. The border objects were then excluded. Channel two (Ch2) applied applied the BGRFR 549_15, which identified the BrdU staining and BGRFR 485_20 to identify the F-actin staining. BGRFR 650_13 was applied in Channel three (Ch3) and identified the γ-H2AX staining.
Multi-Channel images were analyzed using HCS Studio™2.0 TargetActivation BioApplication. Multiple parameters of nuclei were characterized in HCA, including nuclei number, nuclear area, shape, and total DNA intensity. Nuclear shape measurements included P2A, a ratio of the nuclear perimeter squared to 4it*nucleus area (perimeter^2/4π*enuclear area) to evaluate nuclear smoothness, and LWR, a ratio of the nuclear length to width, to measure nuclear roundness. For a fairly round and smooth object, the values for P2A and LWR are around 1.0. Total intensity was defined as total pixel intensity within a cell in the respective channel. The total intensities of BrdU, γ-H2AX, and F-actin of the individual cells were also quantified. With forty-nine 20× images acquired from each well, at least 1,000 cells were analyzed per well, and single-cell based data were extracted for further analysis. The experiments were performed with at least four biological replicates and repeated twice.
as §1

[4] = system: testicular co-culture: spermatogonial cells (C18-4), Sertoli cells (TM4), Leydig cells (TM3); conditions: co-culture; for effect on cell viability (NR uptake), in words: 48 h treatment, FIG. 6; for in vitro call as reproductive toxicant: 48 h, based on cluster analysis

## CC(C)(c1ccc(O)cc1)c1ccc(O)cc1 [BPA, 4,4′-(propane-2,2-diyl) diphenol]
[1]; 24 h
  pIC50: 3.72
[1]; 48 h
  pIC50: 3.73
Leydig cells (TM3); 24 h
  pIC50: 4.06
Leydig cells (TM3); 48 h
  pIC50: 4.09
Sertoli cells (TM4); 24 h
  pIC50: 4.05
Sertoli cells (TM4); 48 h
  pIC50: 4.10
[2]; 48 and 72 h
  doses with significant induction of cells in M phase: 100 µM
[2]; 24 h
  doses with significant decrease of cells with stretching F-actin filaments (phenotypic 3D structure): 100 µM
[2]
  induction of multinucleated cells, in words: did not induce multinucleation
[3]; 72 h
  doses with significant increase in F-actin total intensity: 100 µM
[3]
  effect on F-actin cord-like structures, in words: dramatically perturbed these structures
  γ-H2AX expression, in words: did not induce γ-H2AX expression
[4]
  effect on cell viability (NR uptake), in words: significant dose-dependent decrease of cell viability

## Oc1ccc(C(c2ccc(O)cc2)(C(F)(F)F)C(F)(F)F)cc1 [BPAF, 4,4′-(Hexafluoroisopropylidene)diphenol]
[1]; 24 h
  pIC50: 4.15
[1]; 48 h
  pIC50: 4.23
Leydig cells (TM3); 24 h
  pIC50: 4.52
Leydig cells (TM3); 48 h
  pIC50: 4.70
Sertoli cells (TM4); 24 h
  pIC50: 4.26
Sertoli cells (TM4); 48 h
  pIC50: 4.65
[2]; 5 μM for 24, 48, and 72 h
  Spearman correlation of total F-actin and γ-H2AX intensity, multinucleated versus non-multinucleated cells: higher resulting positive correlation
[2]; 24, 48, and 72 h
  dose significantly inducing multinucleated cells: 5 µM
[2]; 24 h
  doses with significant induction of cells in M phase: 10 µM
[3]
  effect on F-actin cord-like structures, in words: dramatically perturbed these structures
  doses inducing DNA damage response (γ-H2AX): ≥ 5 µM
[4]
  in vitro call as reproductive toxicant: positive

## O=S(=O)(c1ccc(O)cc1)c1ccc(O)cc1 [BPS, 4,4′-Sulfonyldiphenol]
[1]; 24 h
  pIC50: 3.30
[1]; 48 h
  pIC50: 3.45
Leydig cells (TM3); 24 h
  pIC50: 3.36
Leydig cells (TM3); 48 h
  pIC50: ≤ 3.40
Sertoli cells (TM4); 24 h
  pIC50: 3.68
Sertoli cells (TM4); 48 h
  pIC50: 4.13
[2]; 48 and 72 h
  doses with significant induction of cells in M phase: 100 µM
[2]; 72 h
  doses with significant decrease of cells with stretching F-actin filaments (phenotypic 3D structure): 100 µM
[2]
  induction of multinucleated cells, in words: did not induce multinucleation
[3]; 24 and 48 h
  doses with significant increase in F-actin total intensity: 100 µM
[3]
  effect on F-actin cord-like structures, in words: induced no notable changes
  γ-H2AX expression, in words: did not induce γ-H2AX expression
[4]
  in vitro call as reproductive toxicant: positive
  effect on cell viability (NR uptake), in words: significant dose-dependent decrease of cell viability

## CC(C)(c1cc(Br)c(O)c(Br)c1)c1cc(Br)c(O)c(Br)c1 [TBBPA, 2,2′,6,6′-Tetrabromo-4,4′-isopropylidenediphenol]
[1]; 24 h
  pIC50: 4.13
[1]; 48 h
  pIC50: 4.26
Leydig cells (TM3); 24 h
  pIC50: 4.15
Leydig cells (TM3); 48 h
  pIC50: 4.22
Sertoli cells (TM4); 24 h
  pIC50: 4.22
Sertoli cells (TM4); 48 h
  pIC50: 4.42
[2]; 24, 48, and 72 h
  doses with significant induction of cells in M phase: 15 µM
[2]
  induction of multinucleated cells, in words: did not induce multinucleation
[3]
  effect on F-actin cord-like structures, in words: dramatically perturbed these structures
  doses inducing DNA damage response (γ-H2AX): 15 µM
[4]
  in vitro call as reproductive toxicant: positive
